Test results reported in publication PMC6100075, “Correlation between the Potency of Flavonoids on Mushroom Tyrosinase Inhibitory Activity and Melanin Synthesis in Melanocytes” (Molecules : A Journal of Synthetic Chemistry and Natural …, 2018).
Read-outs that look alike come from different tables or passages of the source.

Assays:
mushroom tyrosinase = mushroom tyrosinase (Agaricus bisporus, UniProt C7FF04); assay: Mushroom tyrosinase inhibitory assay (o-diphenolase activity, L-DOPA as substrate); assay type: biochemical; conditions: for inhibition at 300 µM: read-out: Mushroom Tyrosinase Inhibition % Inhibition (at 300 μM); for inhibitory activity on mushroom tyrosinase (in words): o-diphenolase; for inhibition at 200 µM: read-out: Mushroom Tyrosinase Inhibition % Inhibition (at 200 μM); for behaviour as substrate of mushroom tyrosinase (in words): pre-incubation with enzyme in absence of L-DOPA, coloured product at 475 nm;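 on all read-outs here: enzyme and test sample preincubated 10 min at 25 °C in pH 6.8 phosphate buffer, 50% DMSO vehicle as control, enzyme-free mixture as blank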
murine tyrosinase = target: T1, murine tyrosinase (Mus musculus, UniProt P11344); assay: Murine tyrosinase inhibitory assay (o-diphenolase activity, crude enzyme from B16-F10 melanoma cells); assay type: biochemical;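 further: crude tyrosinase taken from lysed, dialyzed B16-F10 cell extract, with the inhibition reaction incubated for 2 h at 37 °C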
T1 construct: The cells were lysed by vortex and incubated at 4 °C for 1 h to solubilize the tyrosinase enzyme; endogenous in cells; host or cells: B16-F10 melanoma cells (Triton X-100 lysate, dialyzed)
T1 sequence (P11344 19-533): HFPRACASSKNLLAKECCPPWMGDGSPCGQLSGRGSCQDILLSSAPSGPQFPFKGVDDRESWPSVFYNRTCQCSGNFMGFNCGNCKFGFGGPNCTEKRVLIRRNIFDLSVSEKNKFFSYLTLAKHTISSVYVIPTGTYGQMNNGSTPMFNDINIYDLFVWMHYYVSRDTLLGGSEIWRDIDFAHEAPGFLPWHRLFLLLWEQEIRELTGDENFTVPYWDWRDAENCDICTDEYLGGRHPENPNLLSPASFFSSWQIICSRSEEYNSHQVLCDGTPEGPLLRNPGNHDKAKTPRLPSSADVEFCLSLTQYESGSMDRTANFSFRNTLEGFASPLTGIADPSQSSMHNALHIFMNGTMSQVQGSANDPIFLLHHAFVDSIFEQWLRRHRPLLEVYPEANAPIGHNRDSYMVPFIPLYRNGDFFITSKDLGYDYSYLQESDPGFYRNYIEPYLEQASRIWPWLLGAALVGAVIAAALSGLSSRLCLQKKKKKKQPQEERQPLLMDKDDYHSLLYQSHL

B16-F10 melanoma cells = assay: Total melanin content assay; assay type: cell-based, Mus musculus (mouse); conditions: for activity at 15 µM / activity at 30 µM: read-out: % Melanin Content
Protocol: Mus musculus (mouse) melanoma cell line, B16-F10 (ATCC® Number: CRL-6475™, Manassas, VA, USA), was cultured in complete Dulbecco′s Modified Eagle′s Medium (DMEM, phenol red-free medium) containing 10% fetal bovine serum, 25 mM glucose, 4 mM L-glutamine, 1 mM sodium pyruvate, 10 μg/mL penicillin, and 10 μg/mL streptomycin, at 37 °C, with 5% carbon dioxide (CO2) in a humidified atmosphere.
The total melanin content, produced both extracellularly and intracellularly, was determined as follows: B16-F10 cells were seeded onto a 24-well plate at a concentration of 50,000 cells/0.5 mL/well and were incubated for 24 h, followed by treatment with either the test compounds or the control (0.5% DMSO), and then incubated for 72 h. For extraction, the total produced melanin and 0.5 mL of 2 N NaOH containing 20% DMSO were added directly to the cell culture medium, mixed by pipetting and then incubated at room temperature for 1 h. The lysed cell extract was centrifuged at 13,000× g for 5 min. Finally, the supernatant was transferred to a 96-well plate and the relative melanin content was detected at 405 nm using a micro plate reader. Kojic acid and oxyresveratrol were used as positive controls.

[1] = Cell viability assay (PrestoBlue resazurin); assay type: cell-based, Mus musculus (mouse); conditions: mouse;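 further: mouse B16-F10 melanoma cells exposed to test samples for 72 h, with viability read as fluorescence of resorufin formed when living cells reduce PrestoBlue resazurin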
[2] = tested on: human melanoma cells (MMV II); set-up: method as in PMID 25248426; conditions: cited from earlier work
[3] = 200 μM, L-DOPA substrate, read-out: Murine Tyrosinase Inhibition, % (at 200 μM), symbol
[4] = Mus musculus, B16-F10, 15 μM, 72 h, relative to control
[5] = Mus musculus, B16-F10, 30 μM, 72 h, relative to control
[6] = B16-F10 melanoma cells, 15 μM, 72 h, relative to control, read-out: % Cell Viability
[7] = B16-F10 melanoma cells, 30 μM, 72 h, relative to control, read-out: % Cell Viability
[8] = 200 μM, L-DOPA substrate, read-out: Murine Tyrosinase Inhibition, % (at 200 μM)

mushroom tyrosinase, sequence (G1K3P4 entry or part of it): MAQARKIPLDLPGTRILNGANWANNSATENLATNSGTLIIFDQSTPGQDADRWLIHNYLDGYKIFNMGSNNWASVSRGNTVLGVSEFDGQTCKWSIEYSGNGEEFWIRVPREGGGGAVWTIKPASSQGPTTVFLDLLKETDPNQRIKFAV
mushroom tyrosinase, sequence (C7FF04 2-392): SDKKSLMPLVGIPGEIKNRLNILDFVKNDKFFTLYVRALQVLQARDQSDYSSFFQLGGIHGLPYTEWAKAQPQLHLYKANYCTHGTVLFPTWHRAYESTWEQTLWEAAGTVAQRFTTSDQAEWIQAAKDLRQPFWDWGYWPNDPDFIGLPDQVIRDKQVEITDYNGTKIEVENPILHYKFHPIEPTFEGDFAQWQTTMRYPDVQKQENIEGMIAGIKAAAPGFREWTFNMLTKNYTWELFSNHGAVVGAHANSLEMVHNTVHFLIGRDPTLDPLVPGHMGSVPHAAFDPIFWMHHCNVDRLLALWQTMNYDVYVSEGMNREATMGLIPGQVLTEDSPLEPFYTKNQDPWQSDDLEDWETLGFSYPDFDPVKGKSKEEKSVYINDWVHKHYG

Compound | inhibition at 200 µM (murine tyrosinase; [3]) [%] | activity at 15 µM (B16-F10 melanoma cells; [4]) [%] | activity at 30 µM (B16-F10 melanoma cells; [5]) [%] | viability at 72 h, 15 µM [1, 6] [%] | viability at 72 h, 30 µM [1, 7] [%] | other results
COc1ccc(-c2coc3cc(O)cc(O)c3c2=O)c(OC)c1O [Compound 7, Khrinone C] | < 0 | 107.6 ± 0.8 | 154 ± 9.9 | 93.3 ± 2 | 93.4 ± 2 | inhibition at 300 µM (mushroom tyrosinase; L-DOPA substrate): 2%; inhibitory activity on mushroom tyrosinase (in words) (mushroom tyrosinase; L-DOPA substrate): did not show inhibitory activity
COc1ccc([C@@H]2COc3cc(O)ccc3C2)c(O)c1 [Compound 19, (3R)-Vestitol] |  | 186.1 ± 1.6 | 232 ± 9.3 | 142 ± 3 | 120 ± 4.1 | inhibition at 200 µM (mushroom tyrosinase; 200 μM, L-DOPA substrate): 35.6 ± 2.2%; inhibition at 200 µM (murine tyrosinase; [8]): 12.4 ± 3.3%
COc1cc(OC)c(C2COc3cc(O)ccc3C2=O)cc1O (stereo not shown) [Compound 12, Dalparvin] | < 0 | 134 ± 9.7 | 200 ± 12.1 | 117 ± 8.9 | 99.7 ± 6.7 | inhibition at 200 µM (mushroom tyrosinase; 200 μM, L-DOPA substrate): 31.6 ± 0.5%
O=c1c(O)c(-c2ccc(O)cc2)oc2cc(O)cc(O)c12 [kaempferol] |  |  |  |  |  | effect on melanogenesis (in words) [2]: melanogenesis-promoting actions
COc1ccc(C2COc3cc(O)ccc3C2=O)c(O)c1OC (stereo not shown) [Compound 13, Dalparvin B] |  | 102 ± 2.7 | 99.1 ± 2.3 | 82.3 ± 5.4 | 74.1 ± 6.4 | inhibition at 500 µM (mushroom tyrosinase; L-DOPA substrate): 4%; inhibition at 200 µM (murine tyrosinase; [8]): 9.8 ± 2.8%
COc1ccc(-c2coc3cc(O)ccc3c2=O)cc1 [Compound 1, Formononetin] | < 0 | 134 ± 2.7 | 155 ± 15.4 | 96 ± 3.3 | 92.8 ± 9.4 | inhibition at 300 µM (mushroom tyrosinase; L-DOPA substrate): 10%; inhibitory activity on mushroom tyrosinase (in words) (mushroom tyrosinase; L-DOPA substrate): did not show inhibitory activity
COc1cc(O)c2c(=O)c(-c3ccc(O)cc3O)coc2c1 [Compound 9, Cajanin] |  |  |  |  |  | inhibition at 200 µM (mushroom tyrosinase): 65 ± 1.6%; inhibition at 200 µM (murine tyrosinase; read-out: Murine Tyrosinase Inhibition, % (at 200 μM)): 9.2 ± 1.5%; effect on melanin content (in words, Figure 1) (B16-F10 melanoma cells; 30 μM): inhibitory effect of melanogenesis; activity at 15 µM (B16-F10 melanoma cells; Mus musculus, B16-F10, 72 h): 65.8 ± 7.5%; activity at 30 µM (B16-F10 melanoma cells; Mus musculus, B16-F10, 72 h): 61.6 ± 8.9%; inhibition at 15 µM (B16-F10 melanoma cells; Mus musculus, B16-F10, read-out: inhibition of melanogenesis): 34%; viability at 72 h, 15 µM ([1]; 15 μM, 72 h, relative to control, read-out: % Cell Viability): 102 ± 6.6%; viability at 72 h, 30 µM ([1]; 30 μM, 72 h, relative to control, read-out: % Cell Viability): 107 ± 3.3%
O=C1C[C@@H](c2ccc(O)cc2)Oc2cc(O)cc(O)c21 [Compound 25, (2S)-Naringenin] | < 0 | 132 ± 14.5 | 152 ± 3.8 | 94.3 ± 2 | 98.1 ± 0.5 | behaviour as substrate of mushroom tyrosinase (in words) (mushroom tyrosinase): chromogenic substrate analogs; effect on melanin content (in words, Figure 1) (B16-F10 melanoma cells; 30 μM): increased the melanin content
COc1cc(-c2coc3cc(O)cc(O)c3c2=O)ccc1O [Compound 6, 3′-O-Methylorobol] | < 0 | 170 ± 10.5 | 216 ± 15.7 | 107 ± 6.2 | 102 ± 2.7 | inhibition at 200 µM (mushroom tyrosinase; 200 μM, L-DOPA substrate): 14.3 ± 1.1%; inhibitory activity on mushroom tyrosinase (in words) (mushroom tyrosinase; L-DOPA substrate): did not show inhibitory activity
O=c1cc(CO)occ1O [Kojic acid, reference compound] |  | 68.9 ± 5.2 | 74.2 ± 5.8 | 98.9 ± 4.7 | 99.6 ± 2.3 | 
COc1ccc([C@@H]2COc3cc(O)ccc3C2=O)cc1O [Compound 10, (3R)-7,3′-Dihydroxy-4′-methoxy-isoflavanone] | < 0 | 95.1 ± 3 | 95.2 ± 2.7 | 94.9 ± 3.9 | 96.5 ± 3.9 | inhibition at 200 µM (mushroom tyrosinase): 52.1 ± 0.4%
COc1ccc(-c2coc3cc(O)cc(O)c3c2=O)cc1 [Compound 3, Biochanin A] | < 0 | 165 ± 5.9 | 168 ± 5.1 | 103 ± 4.5 | 102 ± 4.8 | inhibition at 200 µM (mushroom tyrosinase; 200 μM, L-DOPA substrate): 9.2 ± 0.4%; inhibitory activity on mushroom tyrosinase (in words) (mushroom tyrosinase; L-DOPA substrate): did not show inhibitory activity
COc1ccc([C@@H]2COc3cc(O)ccc3C2)c(OC)c1O [Compound 20, (3R)(+)-Mucronulatol] |  | 179 ± 15.9 | 264 ± 8.2 | 104 ± 6.9 | 102 ± 2.7 | inhibition at 200 µM (mushroom tyrosinase; 200 μM, L-DOPA substrate): 48.3 ± 1.6%; inhibition at 200 µM (murine tyrosinase; [8]): 12.8 ± 2.1%
O=C1C[C@@H](c2ccc(O)cc2)Oc2cc(O)ccc21 [Compound 24, (2S)-Liquiritigenin] |  | 103 ± 5.5 | 124 ± 2 | 98.9 ± 10.7 | 100 ± 3.5 | inhibition at 200 µM (mushroom tyrosinase): 52.1 ± 1.4%; inhibition at 200 µM (murine tyrosinase; [8]): 13.2 ± 2.7%
COc1cc2c(cc1C1COc3cc(O)ccc3C1=O)OCO2 (stereo not shown) [Compound 11, Onogenin] | < 0 | 134 ± 4.6 | 170 ± 15.4 | 100 ± 5 | 92 ± 2 | inhibition at 300 µM (mushroom tyrosinase; L-DOPA substrate): 0%
Oc1cc(O)cc(/C=C/c2ccc(O)cc2O)c1 [Oxyresveratrol, reference compound] |  | 24.3 ± 1.1 | 28.4 ± 1.7 |  |  | inhibition at 200 µM (mushroom tyrosinase): 98.4 ± 1.1%; viability at 72 h, 15 µM ([1]; % Cell Viability): 117 ± 2.2%; viability at 72 h, 30 µM ([1]; % Cell Viability): 118 ± 5.1%
COc1c(O)cc2occ(-c3ccc(O)cc3)c(=O)c2c1O [Compound 8, Tectorigenin] |  | 128 ± 2.8 | 152 ± 4.7 | 130 ± 3.4 | 119 ± 1.3 | behaviour as substrate of mushroom tyrosinase (in words) (mushroom tyrosinase): chromogenic substrate analogs; inhibition at 200 µM (murine tyrosinase; [8]): 10.2 ± 2.9%

Further lines, with some results ahead:

inhibition at 200 µM (murine tyrosinase; [3]) [%] | Compound | activity at 15 µM (B16-F10 melanoma cells; [4]) [%] | activity at 30 µM (B16-F10 melanoma cells; [5]) [%] | viability at 72 h, 15 µM [1, 6] [%] | viability at 72 h, 30 µM [1, 7] [%] | other results
< 0 | COc1ccc(C2COc3cc(O)ccc3C2=O)c(OC)c1OC [Compound 15, (3R,S)-3′-O-Methylviolanone] | 143 ± 8.4 | 157 ± 11.5 | 74.2 ± 7.8 | 72.9 ± 6.2 | inhibition at 300 µM (mushroom tyrosinase; L-DOPA substrate): 0%
< 0 | COc1ccc(C2COc3c(ccc(O)c3OC)C2)c(OC)c1O (stereo not shown) [Compound 22, Duartin] | 301.1 ± 2.3 | 326.8 ± 2.1 | 140 ± 7.5 | 94.4 ± 2.8 | inhibition at 500 µM (mushroom tyrosinase; L-DOPA substrate): 0%; increase in melanin content with respect to the control (B16-F10 melanoma cells): three-fold increase; effect on melanin content (in words, Figure 1) (B16-F10 melanoma cells; 30 μM): increased the melanin content
< 0 | COc1ccc(C2COc3cc(O)cc(O)c3C2=O)cc1O [Compound 16, (3R,S)-Kenusanone G] | 133 ± 5.1 | 158 ± 13.5 | 124 ± 1.7 | 102 ± 2.8 | inhibition at 500 µM (mushroom tyrosinase; L-DOPA substrate): 0%
< 0 | COc1ccc([C@H]2COc3c(ccc(O)c3O)C2)c(OC)c1O [Compound 23, (3S)-8-Demethylduartin] | 87.8 ± 2 | 72.7 ± 4.3 | 93.5 ± 3 | 98.3 ± 5.4 | behaviour as substrate of mushroom tyrosinase (in words) (mushroom tyrosinase): chromogenic substrate analog
< 0 | COc1cc(OC)c(C2COc3cc(O)cc(O)c3C2=O)cc1O (stereo not shown) [Compound 18, Dalparvin A] | 132 ± 4.4 | 184 ± 10.6 | 105 ± 4.8 | 100 ± 7.1 | inhibition at 500 µM (mushroom tyrosinase; L-DOPA substrate): 0%
< 0 | COc1ccc([C@H]2COc3cc(O)cc(O)c3C2=O)c(OC)c1O [Compound 17, (3S)-Secundiflorol H] | 118 ± 17.7 | 146 ± 6.1 | 109 ± 6.6 | 103 ± 4.1 | inhibition at 200 µM (mushroom tyrosinase; 200 μM, L-DOPA substrate): 44 ± 3.7%
